Measurements from ChEMBL document CHEMBL1201862, “PubChem BioAssay data set” (2004).
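How tested: cells in 96-well plates exposed to compound for 48 hours at five concentrations. GI50 = concentration required for 50% inhibition of growth.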 Calls of active or inactive are those of the source. No stated cut-off is given here; in the data, active = GI50 up to about 1.1 µM and inactive = higher.

Key:
Experiment in all cases: NCI-60 cell line screen, 48 h
RPMI-8226 = test system: RPMI-8226
HT-29 = test system: HT-29
NCI/ADR-RES = test system: NCI/ADR-RES
SF-295 = test system: SF-295
EKVX = test system: EKVX
T47D = test system: T47D
M14 = test system: M14
ACHN = test system: ACHN
SNB-19 = test system: SNB-19
MCF7 = test system: MCF7
UACC-62 = test system: UACC-62
K562 = test system: K562
KM12 = test system: KM12
Hs-578T = test system: Hs-578T
MDA-MB-435 = test system: MDA-MB-435
HL-60 = test system: HL-60
Malme-3M = test system: Malme-3M
NCI-H522 = test system: NCI-H522
SK-OV-3 = test system: SK-OV-3
HCC 2998 = test system: HCC 2998
SR = test system: SR
SK-MEL-5 = test system: SK-MEL-5
SF-539 = test system: SF-539
MDA-N = test system: MDA-N
PC-3 = test system: PC-3
SN12C = test system: SN12C
SF-268 = test system: SF-268
SK-MEL-2 = test system: SK-MEL-2
NCI-H226 = test system: NCI-H226
HCT-15 = test system: HCT-15
OVCAR-4 = test system: OVCAR-4
NCI-H460 = test system: NCI-H460
SNB-75 = test system: SNB-75
HCT-116 = test system: HCT-116
A498 = test system: A498
NCI-H23 = test system: NCI-H23
RXF 393 = test system: RXF 393
OVCAR-3 = test system: OVCAR-3
UACC-257 = test system: UACC-257
UO-31 = test system: UO-31
HOP-62 = test system: HOP-62
COLO 205 = test system: COLO 205
CAKI-1 = test system: CAKI-1
MOLT-4 = test system: MOLT-4
BT-549 = test system: BT-549
786-0 = test system: 786-0
A549 = test system: A549
SW-620 = test system: SW-620
LOX IMVI = test system: LOX IMVI
DU-145 = test system: DU-145
HOP-92 = test system: HOP-92
TK-10 = test system: TK-10
IGROV-1 = test system: IGROV-1
MDA-MB-231 = test system: MDA-MB-231
U-251 = test system: U-251
OVCAR-5 = test system: OVCAR-5
OVCAR-8 = test system: OVCAR-8
CCRF-CEM = test system: CCRF-CEM
SK-MEL-28 = test system: SK-MEL-28

COc1ccc(N2C(=O)C3c4[nH]c5ccc(OC)cc5c4C4CCC(c5ccccc5)CC4C3C2=O)cc1 (stereo not drawn)
GI50 (RPMI-8226): 6250 nM (inactive) | GI50 (HT-29): 4040 nM (inactive) | GI50 (NCI/ADR-RES): 12600 nM (inactive) | GI50 (SF-295): 7730 nM (inactive) | GI50 (EKVX): 9080 nM (inactive) | GI50 (T47D): 20100 nM (inactive) | GI50 (M14): 14800 nM (inactive) | GI50 (ACHN): 9480 nM (inactive) | GI50 (SNB-19): 11900 nM (inactive) | GI50 (MCF7): 19600 nM (inactive) | GI50 (UACC-62): 15100 nM (inactive) | GI50 (K562): 7670 nM (inactive) | GI50 (KM12): 14200 nM (inactive) | GI50 (Hs-578T): 1600 nM (inactive) | GI50 (MDA-MB-435): 16400 nM (inactive) | GI50 (HL-60): 11500 nM (inactive) | GI50 (Malme-3M): 11400 nM (inactive) | GI50 (NCI-H522): 7890 nM (inactive) | GI50 (SK-OV-3): 12200 nM (inactive) | GI50 (HCC 2998): 8690 nM (inactive) | GI50 (SR): 451 nM (active) | GI50 (SK-MEL-5): 22400 nM (inactive) | GI50 (SF-539): 2090 nM (inactive) | GI50 (MDA-N): 18400 nM (inactive) | GI50 (PC-3): 19200 nM (inactive) | GI50 (SN12C): 6150 nM (inactive) | GI50 (SF-268): 8630 nM (inactive) | GI50 (SK-MEL-2): 20300 nM (inactive) | GI50 (NCI-H226): 28700 nM (inactive) | GI50 (HCT-15): 31300 nM | GI50 (OVCAR-4): 4210 nM (inactive) | GI50 (NCI-H460): 4930 nM (inactive) | GI50 (SNB-75): 3150 nM (inactive) | GI50 (HCT-116): 1110 nM (active) | GI50 (A498): 14200 nM (inactive) | GI50 (NCI-H23): 17500 nM (inactive) | GI50 (RXF 393): 10900 nM (inactive) | GI50 (OVCAR-3): 16700 nM (inactive) | GI50 (UACC-257): 17300 nM (inactive) | GI50 (UO-31): 29600 nM (inactive) | GI50 (HOP-62): 5620 nM (inactive) | GI50 (COLO 205): 6190 nM (inactive) | GI50 (CAKI-1): 14600 nM (inactive) | GI50 (MOLT-4): 4320 nM (inactive) | GI50 (BT-549): 19600 nM (inactive) | GI50 (786-0): 2120 nM (inactive) | GI50 (A549): 12800 nM (inactive) | GI50 (SW-620): 3820 nM (inactive) | GI50 (LOX IMVI): 17300 nM (inactive) | GI50 (DU-145): 29900 nM (inactive) | GI50 (HOP-92): 16700 nM (inactive) | GI50 (TK-10): 21800 nM (inactive) | GI50 (IGROV-1): 16100 nM (inactive) | GI50 (MDA-MB-231): 7050 nM (inactive) | GI50 (U-251): 8990 nM (inactive) | GI50 (OVCAR-5): 20600 nM (inactive) | GI50 (OVCAR-8): 7480 nM (inactive) | GI50 (CCRF-CEM): 2270 nM (inactive) | GI50 (SK-MEL-28): 14100 nM (inactive)

O=[N+]([O-])c1cccc2nc3ccccc3c(NCCCN3CCCCC3)c12
GI50 (RPMI-8226): < 10 nM (active) | GI50 (HT-29): < 10 nM (active) | GI50 (NCI/ADR-RES): 418 nM (active) | GI50 (SF-295): 14.6 nM (active) | GI50 (EKVX): < 10 nM (active) | GI50 (T47D): 17.9 nM (active) | GI50 (M14): 11.6 nM (active) | GI50 (ACHN): 13.9 nM (active) | GI50 (SNB-19): 23.3 nM (active) | GI50 (MCF7): < 10 nM (active) | GI50 (UACC-62): 15.1 nM (active) | GI50 (K562): < 12.3 nM (active) | GI50 (KM12): 14 nM (active) | GI50 (Hs-578T): 38.5 nM (active) | GI50 (MDA-MB-435): 10.6 nM (active) | GI50 (HL-60): 25.2 nM (active) | GI50 (Malme-3M): 16.4 nM (active) | GI50 (NCI-H522): < 10 nM (active) | GI50 (SK-OV-3): 28 nM (active) | GI50 (HCC 2998): < 10 nM (active) | GI50 (SR): < 10 nM (active) | GI50 (SK-MEL-5): < 11 nM (active) | GI50 (SF-539): 16.3 nM (active) | GI50 (MDA-N): 10.2 nM (active) | GI50 (PC-3): < 10 nM (active) | GI50 (SN12C): < 10.5 nM (active) | GI50 (SF-268): 19.1 nM (active) | GI50 (SK-MEL-2): 14.8 nM (active) | GI50 (NCI-H226): 16.9 nM (active) | GI50 (HCT-15): 15.8 nM | GI50 (OVCAR-4): < 10 nM (active) | GI50 (NCI-H460): < 10 nM (active) | GI50 (SNB-75): 20.5 nM (active) | GI50 (HCT-116): < 10 nM (active) | GI50 (A498): < 11.5 nM (active) | GI50 (NCI-H23): < 10 nM (active) | GI50 (RXF 393): 10.1 nM (active) | GI50 (OVCAR-3): < 12.6 nM (active) | GI50 (UACC-257): 21.9 nM (active) | GI50 (UO-31): 23.7 nM (active) | GI50 (HOP-62): 12.5 nM (active) | GI50 (COLO 205): < 10.7 nM (active) | GI50 (CAKI-1): 31.2 nM (active) | GI50 (MOLT-4): < 10 nM (active) | GI50 (BT-549): 28.6 nM (active) | GI50 (786-0): < 10 nM (active) | GI50 (A549): < 10 nM (active) | GI50 (SW-620): < 10 nM (active) | GI50 (LOX IMVI): 19.4 nM (active) | GI50 (DU-145): < 10 nM (active) | GI50 (HOP-92): < 10 nM (active) | GI50 (TK-10): 25.6 nM (active) | GI50 (IGROV-1): < 10.4 nM (active) | GI50 (MDA-MB-231): 16 nM (active) | GI50 (U-251): < 13.5 nM (active) | GI50 (OVCAR-5): 20.8 nM (active) | GI50 (OVCAR-8): 13.2 nM (active) | GI50 (CCRF-CEM): 24 nM (active) | GI50 (SK-MEL-28): 41.7 nM (active)
